In ChEMBL document CHEMBL1127150, “Enantioselective synthesis and antielastase activity of 1,3,4-trisubstituted and 3,4-disubstituted -lactam antibiotics” (Bioorg Med Chem Lett, 1993):
Activity calls are given as the source filed them. The calls are words filed in the database; no cut-off is given here.

Experiments:
Neutrophil elastase = target: T1, Neutrophil elastase (Homo sapiens, UniProt P08246); experiment: The compound was evaluated in vitro for the inhibition of human leukocyte elastase(HLE)
T1 sequence (P08246 whole entry): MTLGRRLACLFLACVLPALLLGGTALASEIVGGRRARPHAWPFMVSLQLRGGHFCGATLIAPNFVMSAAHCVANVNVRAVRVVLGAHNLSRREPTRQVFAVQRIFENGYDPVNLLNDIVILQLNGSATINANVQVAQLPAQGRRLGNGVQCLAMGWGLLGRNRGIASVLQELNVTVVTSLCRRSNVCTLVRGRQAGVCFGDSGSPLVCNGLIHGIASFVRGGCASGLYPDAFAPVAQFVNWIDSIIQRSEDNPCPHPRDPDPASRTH

[1] = target: T2, Neutrophil elastase (Homo sapiens) (UniProt P08246); experiment: The compound was evaluated in vitro for the inhibition of human leukocyte elastase(HLE); Not Active
T2 sequence (whole entry): T1 sequence (P08246 whole entry)

[2] = target: T3, Chymotrypsin-like elastase family member 2A (Sus scrofa) (UniProt P08419); experiment: The compound was evaluated in vitro for the inhibition of Pancreatic elastase (PPE); Not Active
T3 sequence (whole entry): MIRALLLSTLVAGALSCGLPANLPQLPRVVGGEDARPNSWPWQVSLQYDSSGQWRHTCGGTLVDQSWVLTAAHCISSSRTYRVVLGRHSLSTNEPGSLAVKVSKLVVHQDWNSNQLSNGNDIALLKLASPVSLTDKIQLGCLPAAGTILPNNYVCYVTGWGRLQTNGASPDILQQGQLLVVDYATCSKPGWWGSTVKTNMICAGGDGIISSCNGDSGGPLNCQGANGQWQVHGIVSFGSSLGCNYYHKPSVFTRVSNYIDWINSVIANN

| SMILES | IC50 (Neutrophil elastase) | Activity [1] | Activity [2] |
| --- | --- | --- | --- |
| CO[C@@H]1C(=O)N(C(C)=O)[C@@H]1/C(C)=C/c1ccccc1 | 1.4 µM |  |  |
| CO[C@@H]1C(=O)N(C(C)=O)[C@@H]1c1ccccc1 | 1.6 µM |  |  |
| CCCC[C@@H]1C(=O)N[C@@H]1C(C)=O |  | inactive | inactive |
| CO[C@H]1C(=O)N([C@@H](C2SCCCS2)C2OC(C)(C)OC2C2COC(C)(C)O2)[C@H]1/C=C/c1ccccc1 (stereo not given in full) | 76 µM |  |  |
| CO[C@@H]1C(=O)N[C@@H]1OC(C)=O |  | inactive | inactive |
| CO[C@H]1C(=O)N[C@H]1c1ccccc1 |  | inactive | inactive |
| CO[C@@H]1C(=O)N[C@@H]1/C=C/c1ccccc1 |  | inactive | inactive |
| O=c1oc(Cl)c(Cl)c2ccccc12 | 0.1 µM |  |  |
| CCCC[C@@H]1C(=O)N[C@@H]1/C(C)=C/c1ccccc1 (stereo in doubt; 11) |  | inactive | inactive |
| CCCC[C@@H]1C(=O)N([C@@H](C2SCCCS2)C2OC(C)(C)OC2C2COC(C)(C)O2)[C@@H]1/C(C)=C/c1ccccc1 (stereo not given in full) | 11 µM |  |  |
| CO[C@@H]1C(=O)N[C@@H]1c1ccccc1 |  | inactive | inactive |
| CO[C@@H]1C(=O)N([C@@H](C2SCCCS2)C2OC(C)(C)OC2C2COC(C)(C)O2)[C@@H]1/C(C)=C/c1ccccc1 (stereo not given in full) | 18 µM |  |  |

More lines, now with the values ahead:

| IC50 (Neutrophil elastase) | Activity [1] | Activity [2] | SMILES |
| --- | --- | --- | --- |
| 94 µM |  |  | CO[C@@H]1C(=O)N(C(C)=O)[C@@H]1C(C)=O |
| 13 µM |  |  | CCCC[C@H]1C(=O)N([C@@H](C2SCCCS2)C2OC(C)(C)OC2C2COC(C)(C)O2)[C@H]1/C(C)=C/c1ccccc1 (stereo not given in full) |
| 45 µM |  |  | CCCC[C@@H]1C(=O)N(C(C)=O)[C@@H]1C(C)=O |
|  | inactive | inactive | CCCC[C@@H]1C(=O)N[C@@H]1/C(C)=C/c1ccccc1 (stereo in doubt; 10) |
|  | inactive | inactive | CO[C@@H]1C(=O)N[C@@H]1C(C)=O |
|  | inactive | inactive | CO[C@H]1C(=O)N[C@H]1/C=C/c1ccccc1 |
|  | inactive | inactive | CO[C@@H]1C(=O)N[C@@H]1/C(C)=C/c1ccccc1 |
| 43 µM |  |  | CCCC[C@@H]1C(=O)N(C(C)=O)[C@@H]1/C(C)=C/c1ccccc1 |
